Assay [1] deals with panel of purified HLA DR molecules. The format is binding, human.
Assay [2] deals with T1, DRB1*0301 (DR3w17) (Homo sapiens, UniProt P01903+P01911, A100K/A102G/A103R/A169T/F55Y/I96L/K41T/L162R/M171V/P40S/Q125H/Q178H/Q39Y/R42S/S66N/T106N/T262R/W38E/Y61H). As to the kind of experiment: biochemical. The following applies: Binding Capacity (IC50% nM) DR3.
The target in another assay is T2, DRB1*1101 (DR5w11) (Homo sapiens, UniProt P01903+P01911, A100R/A169T/A87E/I96F/K41T/L162R/M171V/P40S/Q125H/Q178H/Q39Y/Q99D/R42S/S66Y/T262R/V115G/W38E).
T2 construct: Epstein-Barr virus (EBV) transformed homozygous cell lines were used as sources; endogenous in cells; host or cells: SWEIG (EBV-transformed homozygous B cell line)
T2 sequence (P01903 26-254, other chains not shown): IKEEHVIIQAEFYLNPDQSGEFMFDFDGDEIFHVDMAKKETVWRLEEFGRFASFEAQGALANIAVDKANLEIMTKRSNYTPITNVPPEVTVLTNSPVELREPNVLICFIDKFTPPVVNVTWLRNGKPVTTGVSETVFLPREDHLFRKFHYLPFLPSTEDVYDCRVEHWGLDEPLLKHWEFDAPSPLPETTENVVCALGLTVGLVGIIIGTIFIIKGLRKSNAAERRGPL
Nature of the assay: biochemical. The format is binding.

For another assay, the target named is T3, DRB1*0101 (DR1) (Homo sapiens, UniProt P01903+P01911, A100R/D57E/F55L/F60I/F76Y/I96L/L162R/M171V/P40L/Q125E/R42F/V115G/Y59C).
T3 construct: Epstein-Barr virus (EBV) transformed homozygous cell lines were used as sources; endogenous in cells; host or cells: LG2 (EBV-transformed homozygous B cell line)
As to the kind of experiment: biochemical. The following applies: Binding Capacity (IC 50% nM) DR1,4,7 DRB1. Type of assay: binding.

Another assay addresses T4, DRB1*1302 (DR6w19) (Homo sapiens, UniProt P01903+P01911, A100E/A169T/K41T/L162R/M171V/P40S/Q125H/Q178H/Q39Y/Q99D/R42S/S66N/T262R/V115G/W38E/Y61H).
T4 construct: Epstein-Barr virus (EBV) transformed homozygous cell lines were used as sources; the source of Class II molecules the EBV transformed homozygous cell line H0301; endogenous in cells; host or cells: H0301 (EBV-transformed homozygous B cell line)
As to the kind of experiment: biochemical. Type of assay: binding. The following applies: Binding Capacity (IC 50% nM) Other Alleles DR6w19.

Another assay concerns the target T5, DRB1*0802 (DR8w2) (Homo sapiens, UniProt P01903+P01911, A100R/A103L/A169T/F76Y/H45Y/I96F/K41T/L162R/M171V/P40S/Q125H/Q178H/Q39Y/Q99D/R218S/R42G/S66Y/V115G/W38E).
T5 construct: Epstein-Barr virus (EBV) transformed homozygous cell lines were used as sources; endogenous in cells; host or cells: OLL (EBV-transformed homozygous B cell line)
As to the kind of experiment: biochemical. Type of assay: binding.

Another assay concerns the target T6, DRB1*1201 (DR5w12) (Homo sapiens, UniProt P01903+P01911, A100R/A169T/D57E/D86V/F55L/H45Y/K41T/L162R/M171V/P40S/Q125H/Q178H/Q39Y/Q99D/R42G/S66L/T262R/V114A/V67L/W38E/Y59H/Y61H/Y89S).
T6 construct: Epstein-Barr virus (EBV) transformed homozygous cell lines were used as sources; endogenous in cells; host or cells: Herluf (EBV-transformed homozygous B cell line)
Nature of the assay: biochemical. Type of assay: binding.

Assay [3] addresses T1, DRB1*0301 (DR3w17). The following applies: read-out: Binding Capacity (IC 50% nM) Other Alleles DR3.
A further assay addresses T7, DRB1*0405 (DR4w15) (Homo sapiens, UniProt P01903+P01911, A100R/A169T/D86S/F76Y/I96L/K127E/L162R/M171V/N62H/P40V/Q125Y/R42H/S133A/S149N/S66Y/V115G/V209L/W38E).
T7 construct: Epstein-Barr virus (EBV) transformed homozygous cell lines were used as sources; endogenous in cells; host or cells: KT3 (EBV-transformed homozygous B cell line)
Nature of the assay: biochemical. Type of assay: binding. The note with it: read-out: Binding Capacity (IC 50% nM) Other Alleles DR4w15.

The target in a further assay is T8, DRB1*0701 (DR7) (Homo sapiens, UniProt P01903+P01911, A100R/A102G/A103Q/D57E/D86V/E43K/F76Y/K127E/L162R/M171V/P40G/Q125H/Q99D/R33Q/R42Y/R54Q/S133A/S66F/T210M/V115G/Y107V/Y59L/Y89S).
T8 construct: Epstein-Barr virus (EBV) transformed homozygous cell lines were used as sources; endogenous in cells; host or cells: PITOUT (EBV-transformed homozygous B cell line)
Nature of the assay: biochemical. The format is binding. The note with it: Binding Capacity (IC 50% nM) DR1,4,7 DR7.

The target in the next assay is T9, DRB1*1501 (DR2w2b) (Homo sapiens, UniProt P01903+P01911).
T9 construct: expressed in transfected cells; host or cells: transfected fibroblasts L466.1
As to the kind of experiment: biochemical. Type of assay: binding. The following applies: read-out: Binding Capacity (IC 50% nM) Other Alleles DR2w2b.

For a further assay, the target named is T10, DRB1*0401 (DR4w4) (Homo sapiens, UniProt P01903+P01911, A100K/A169T/F76Y/I96L/K127E/L162R/M171V/N62H/P40V/Q125Y/R42H/S133A/S149N/S66Y/V115G/V209L/W38E).
T10 construct: Epstein-Barr virus (EBV) transformed homozygous cell lines were used as sources; endogenous in cells; host or cells: PREISS (EBV-transformed homozygous B cell line)
As to the kind of experiment: biochemical. Type of assay: binding. The note with it: read-out: Binding Capacity (IC 50% nM) DR1,4,7 DR4w4.

The target of another assay is T11, DRB5*0101 (DR2w2a) (Homo sapiens, UniProt P01903+Q30154).
T11 construct: Epstein-Barr virus (EBV) transformed homozygous cell lines were used as sources; endogenous in cells; host or cells: GM3107 (EBV-transformed homozygous B cell line)
Nature of the assay: biochemical. The format is binding.

Another assay has as its target T12, DRB1*0901 (DR9) (Homo sapiens, UniProt P01903+P01911, A100R/A103E/D57H/D86V/F55Y/F60I/F76Y/I96F/K127E/L162R/M171V/P40D/Q125H/Q99R/R33Q/R42F/S133A/S66N/T210M/V115G/W38K/Y107V/Y59G/Y89S).
T12 construct: Epstein-Barr virus (EBV) transformed homozygous cell lines were used as sources; endogenous in cells
As to the kind of experiment: biochemical. The format is binding. The note with it: Binding Capacity (IC 50% nM) Other Alleles DR9.

SMILES strings stand for the structures. Like-named read-outs stand apart in the source and are kept apart here.

Regarding `CC[C@H](C)[C@H](NC(=O)[C@H](CO)NC(=O)[C@@H](N)CO)C(=O)N[C@H](C(=O)N[C@@H](Cc1ccccc1)C(=O)NCC(=O)N[C@@H](C)C(=O)N[C@@H](Cc1ccccc1)C(=O)N1CCC[C@H]1C(=O)N[C@@H](CO)C(=O)N[C@@H](CC(C)C)C(=O)N[C@@H](Cc1c[nH]cn1)C(=O)N[C@@H](CO)C(=O)NCC(=O)N[C@@H](CS)C(=O)N[C@@H](CS)C(=O)O)[C@@H](C)CC` [Peptide 1136.38], the “Total Alleles Bound” value in assay [1] is 6.

Turning to `CC[C@H](C)[C@H](NC(=O)[C@H](CO)NC(=O)[C@H](CO)NC(=O)[C@H](CC(N)=O)NC(=O)[C@@H](NC(=O)[C@@H](NC(=O)[C@H](CC(N)=O)NC(=O)[C@H](Cc1ccccc1)NC(=O)[C@@H](N)C(C)C)C(C)C)C(C)C)C(=O)NCC(=O)N[C@@H](CC(C)C)C(=O)N[C@H](C(=O)N[C@@H](CCSC)C(=O)N[C@H](C(=O)N[C@@H](CC(C)C)C(=O)O)C(C)C)[C@@H](C)CC` [Peptide F107.23], the IC50 at DRB1*0301 (DR3w17) [2] was above 10000 nM; on DRB1*1101 (DR5w11) (Binding Capacity (IC50% nM) DR5w11) it was above 10000 nM; at DRB1*1101 (DR5w11) (read-out: Binding Capacity (IC 50% nM) Other Alleles DR5w11) it was above 1000 nM; at DRB1*0101 (DR1), below 1000 nM; at DRB1*1302 (DR6w19), below 1000 nM; on DRB1*0802 (DR8w2) (Binding Capacity (IC50% nM) DR8w2), above 10000 nM. For the same compound, the IC50 on DRB1*0802 (DR8w2) (read-out: Binding Capacity (IC 50% nM) Other Alleles DR8w2) is above 1000 nM; at DRB1*1201 (DR5w12) (Binding Capacity (IC50% nM) DR5w12) it was above 10000 nM; at DRB1*1201 (DR5w12) (read-out: Binding Capacity (IC 50% nM) Other Alleles DR5w12), above 1000 nM; on DRB1*0301 (DR3w17) [3] it was above 1000 nM; at DRB1*0405 (DR4w15) it was above 1000 nM; at DRB1*0701 (DR7) it was below 1000 nM. Moreover, the IC50 at DRB1*1501 (DR2w2b) was above 1000 nM; at DRB1*0401 (DR4w4) it was above 1000 nM; at DRB5*0101 (DR2w2a) (Binding Capacity (IC50% nM) DR2w2a), above 10000 nM; at DRB5*0101 (DR2w2a) (read-out: Binding Capacity (IC 50% nM) Other Alleles DR2w2a) it was above 1000 nM; on DRB1*0901 (DR9), below 1000 nM.

These data come from patent US6413517B1, “Identification of broadly reactive DR restricted epitopes” (Epimmune, Inc., priority 1997, dated 2002).
